The CheMixHub viscosity set

Experiment: xn = mol fraction of the nth substance listed
Settings: 100 kPa

CCCCCCCCCCC + CCCCCCCCCCO
viscosity [mPa·s]
Settings | x1 = 0.1003 | x1 = 0.2003 | x1 = 0.3005 | x1 = 0.3972 | x1 = 0.4989 | x1 = 0.5997 | x1 = 0.7007 | x1 = 0.8 | x1 = 0.8987
293.15 K | 10.47 | 7.7 | 5.667 | 4.374 | 3.193 | 2.542 | 1.992 | 1.626 | 1.378
298.15 K | 8.685 | 6.471 | 4.833 | 3.775 | 2.8 | 2.254 | 1.793 | 1.486 | 1.256
303.15 K | 7.267 | 5.479 | 4.152 | 3.283 | 2.477 | 2.015 | 1.628 | 1.368 | 1.154
308.15 K | 6.125 | 4.678 | 3.591 | 2.873 | 2.202 | 1.814 | 1.508 | 1.252 | 1.06
313.15 K | 5.2 | 4.018 | 3.127 | 2.533 | 1.97 | 1.644 | 1.376 | 1.149 | 0.979
318.15 K | 4.447 | 3.475 | 2.741 | 2.26 | 1.773 | 1.518 | 1.256 | 1.058 | 0.908
323.15 K | 3.825 | 3.02 | 2.418 | 2.006 | 1.655 | 1.382 | 1.152 | 0.975 | 0.846
